Experimental data reported in patent publication US20100137449A1, “SUBSTITUTED 1,3-CYCLOPENTADIONE MULTI-TARGET PROTEIN KINASE MODULATORS OF CANCER, ANGIOGENESIS AND THE INFLAMMATORY PATHWAYS ASSOCIATED THEREWITH” (METAPROTEOMICS, LLC, priority 2007, published 2010).

Columns and labels:
Experiment in all cases: KinaseProfiler Assay
Fms(h) = Fms(h) (Homo sapiens, UniProt P07333)
NEK11(h) = target: T1, NEK11(h) (Homo sapiens, UniProt Q8NG66)
T1 sequence (Q8NG66 1-645): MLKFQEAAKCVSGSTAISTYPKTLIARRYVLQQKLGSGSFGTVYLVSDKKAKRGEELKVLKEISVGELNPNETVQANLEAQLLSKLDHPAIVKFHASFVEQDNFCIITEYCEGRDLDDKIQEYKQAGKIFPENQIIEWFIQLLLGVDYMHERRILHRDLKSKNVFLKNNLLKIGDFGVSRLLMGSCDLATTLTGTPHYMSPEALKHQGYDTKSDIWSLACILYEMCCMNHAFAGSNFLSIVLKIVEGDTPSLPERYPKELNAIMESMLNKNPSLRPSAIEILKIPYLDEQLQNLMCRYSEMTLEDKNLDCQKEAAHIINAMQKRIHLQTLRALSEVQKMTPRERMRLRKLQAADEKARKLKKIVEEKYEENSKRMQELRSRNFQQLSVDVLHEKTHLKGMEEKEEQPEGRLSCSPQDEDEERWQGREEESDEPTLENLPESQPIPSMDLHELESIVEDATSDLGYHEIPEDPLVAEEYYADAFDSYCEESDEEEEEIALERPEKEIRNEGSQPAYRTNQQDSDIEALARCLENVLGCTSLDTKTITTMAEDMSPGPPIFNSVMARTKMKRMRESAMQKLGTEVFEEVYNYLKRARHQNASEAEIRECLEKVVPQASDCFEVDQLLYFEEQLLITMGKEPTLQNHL

SAPK2b(h) = SAPK2b(h) (Homo sapiens, UniProt Q15759)
Sequence of SAPK2b(h) (Q15759 whole entry): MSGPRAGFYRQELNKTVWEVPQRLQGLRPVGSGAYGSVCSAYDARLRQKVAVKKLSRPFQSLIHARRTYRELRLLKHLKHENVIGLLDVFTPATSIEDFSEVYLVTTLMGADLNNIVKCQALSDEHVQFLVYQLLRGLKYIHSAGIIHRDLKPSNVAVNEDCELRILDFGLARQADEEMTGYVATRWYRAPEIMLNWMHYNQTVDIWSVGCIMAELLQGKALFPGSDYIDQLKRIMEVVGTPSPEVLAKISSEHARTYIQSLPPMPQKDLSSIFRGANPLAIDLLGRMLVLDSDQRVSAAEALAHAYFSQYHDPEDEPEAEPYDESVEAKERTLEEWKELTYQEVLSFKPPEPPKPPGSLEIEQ

Rsk1(h) = Rsk1(h) (Homo sapiens, UniProt Q15418)
SAPK4(h) = target: T2, SAPK4(h) (Homo sapiens, UniProt O15264)
T2 sequence (O15264 1-365): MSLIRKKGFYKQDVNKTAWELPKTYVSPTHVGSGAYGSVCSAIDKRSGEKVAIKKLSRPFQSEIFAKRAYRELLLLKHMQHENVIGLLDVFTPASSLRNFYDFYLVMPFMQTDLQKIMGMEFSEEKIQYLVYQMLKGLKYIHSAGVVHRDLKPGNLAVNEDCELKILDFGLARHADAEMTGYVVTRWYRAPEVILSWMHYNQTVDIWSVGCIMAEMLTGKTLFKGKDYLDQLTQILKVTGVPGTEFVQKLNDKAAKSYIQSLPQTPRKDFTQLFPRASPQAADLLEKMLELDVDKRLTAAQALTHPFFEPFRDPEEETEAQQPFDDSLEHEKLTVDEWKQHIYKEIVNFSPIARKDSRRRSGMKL

FGFR4(h) = FGFR4(h) (Homo sapiens, UniProt P22455)
DAPK1(h) = DAPK1(h) (Homo sapiens, UniProt P53355)
Sequence of DAPK1(h) (P53355 whole entry): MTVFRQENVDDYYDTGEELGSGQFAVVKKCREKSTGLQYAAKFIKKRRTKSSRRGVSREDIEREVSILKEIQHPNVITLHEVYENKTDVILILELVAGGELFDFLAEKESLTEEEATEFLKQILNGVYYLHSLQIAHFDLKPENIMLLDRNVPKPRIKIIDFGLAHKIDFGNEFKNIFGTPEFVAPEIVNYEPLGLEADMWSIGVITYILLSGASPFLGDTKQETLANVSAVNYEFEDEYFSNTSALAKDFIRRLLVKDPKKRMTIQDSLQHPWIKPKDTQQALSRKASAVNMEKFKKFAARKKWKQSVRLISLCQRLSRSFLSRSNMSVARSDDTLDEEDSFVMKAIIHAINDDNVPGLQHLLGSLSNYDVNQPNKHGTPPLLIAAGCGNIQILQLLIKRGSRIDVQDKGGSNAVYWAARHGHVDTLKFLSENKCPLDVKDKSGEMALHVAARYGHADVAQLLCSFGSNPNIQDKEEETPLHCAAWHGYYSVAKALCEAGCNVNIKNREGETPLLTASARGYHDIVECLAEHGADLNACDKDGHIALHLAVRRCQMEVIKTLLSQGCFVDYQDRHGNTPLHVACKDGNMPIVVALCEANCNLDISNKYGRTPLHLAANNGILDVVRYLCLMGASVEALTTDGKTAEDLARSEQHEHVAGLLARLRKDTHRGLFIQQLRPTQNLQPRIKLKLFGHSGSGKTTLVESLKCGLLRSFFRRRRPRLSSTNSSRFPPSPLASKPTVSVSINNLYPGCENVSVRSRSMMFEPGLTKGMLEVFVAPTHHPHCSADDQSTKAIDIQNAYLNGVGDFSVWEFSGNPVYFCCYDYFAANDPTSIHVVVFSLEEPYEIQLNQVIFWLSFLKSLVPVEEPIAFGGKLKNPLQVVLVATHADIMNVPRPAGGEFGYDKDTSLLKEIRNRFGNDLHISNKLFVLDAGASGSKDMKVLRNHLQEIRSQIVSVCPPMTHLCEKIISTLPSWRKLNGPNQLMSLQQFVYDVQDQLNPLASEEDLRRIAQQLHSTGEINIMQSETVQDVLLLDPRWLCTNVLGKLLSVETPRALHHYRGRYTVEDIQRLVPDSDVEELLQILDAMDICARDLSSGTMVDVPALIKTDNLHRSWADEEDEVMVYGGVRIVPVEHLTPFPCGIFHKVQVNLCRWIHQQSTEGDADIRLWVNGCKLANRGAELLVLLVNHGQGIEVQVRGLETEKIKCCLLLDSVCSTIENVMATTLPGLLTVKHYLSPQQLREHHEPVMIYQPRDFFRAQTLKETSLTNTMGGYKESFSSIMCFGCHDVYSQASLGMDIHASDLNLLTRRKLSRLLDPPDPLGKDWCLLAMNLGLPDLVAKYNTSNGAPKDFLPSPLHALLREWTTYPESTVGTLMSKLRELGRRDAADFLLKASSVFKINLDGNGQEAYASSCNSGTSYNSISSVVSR

PI 3-Kinaseδ(h) = PI 3-Kinaseδ(h) (Homo sapiens, UniProt O00329)
Sequence of PI 3-Kinaseδ(h) (O00329 whole entry): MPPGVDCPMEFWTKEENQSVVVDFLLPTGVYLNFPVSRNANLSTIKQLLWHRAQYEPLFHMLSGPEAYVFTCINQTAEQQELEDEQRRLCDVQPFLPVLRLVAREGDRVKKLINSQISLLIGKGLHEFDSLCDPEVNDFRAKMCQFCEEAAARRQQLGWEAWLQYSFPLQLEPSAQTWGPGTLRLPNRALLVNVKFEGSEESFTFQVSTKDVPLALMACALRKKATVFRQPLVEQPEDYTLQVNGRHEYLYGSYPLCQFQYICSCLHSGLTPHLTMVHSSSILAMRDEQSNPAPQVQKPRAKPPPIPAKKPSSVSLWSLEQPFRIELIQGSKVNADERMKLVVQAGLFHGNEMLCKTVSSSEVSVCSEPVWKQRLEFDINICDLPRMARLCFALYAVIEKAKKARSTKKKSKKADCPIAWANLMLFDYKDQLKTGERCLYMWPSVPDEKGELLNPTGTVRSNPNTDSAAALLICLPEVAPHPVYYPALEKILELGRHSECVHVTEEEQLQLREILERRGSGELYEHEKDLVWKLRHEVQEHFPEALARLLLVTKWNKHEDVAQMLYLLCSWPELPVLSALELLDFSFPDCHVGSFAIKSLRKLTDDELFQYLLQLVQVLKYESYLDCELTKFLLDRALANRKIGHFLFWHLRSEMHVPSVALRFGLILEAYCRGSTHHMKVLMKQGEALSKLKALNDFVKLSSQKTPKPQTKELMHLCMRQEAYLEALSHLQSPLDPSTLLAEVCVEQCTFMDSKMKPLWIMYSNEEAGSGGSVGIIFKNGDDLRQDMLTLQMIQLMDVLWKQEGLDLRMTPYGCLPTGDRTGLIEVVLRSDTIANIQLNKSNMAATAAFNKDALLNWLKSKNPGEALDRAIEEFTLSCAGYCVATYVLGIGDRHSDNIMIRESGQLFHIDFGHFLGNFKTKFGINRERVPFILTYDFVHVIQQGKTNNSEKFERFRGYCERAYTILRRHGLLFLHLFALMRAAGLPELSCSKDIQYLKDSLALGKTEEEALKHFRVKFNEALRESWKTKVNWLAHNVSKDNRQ
Sequence of PI 3-Kinaseδ(h) (P27986 2-724 partner limits assumed): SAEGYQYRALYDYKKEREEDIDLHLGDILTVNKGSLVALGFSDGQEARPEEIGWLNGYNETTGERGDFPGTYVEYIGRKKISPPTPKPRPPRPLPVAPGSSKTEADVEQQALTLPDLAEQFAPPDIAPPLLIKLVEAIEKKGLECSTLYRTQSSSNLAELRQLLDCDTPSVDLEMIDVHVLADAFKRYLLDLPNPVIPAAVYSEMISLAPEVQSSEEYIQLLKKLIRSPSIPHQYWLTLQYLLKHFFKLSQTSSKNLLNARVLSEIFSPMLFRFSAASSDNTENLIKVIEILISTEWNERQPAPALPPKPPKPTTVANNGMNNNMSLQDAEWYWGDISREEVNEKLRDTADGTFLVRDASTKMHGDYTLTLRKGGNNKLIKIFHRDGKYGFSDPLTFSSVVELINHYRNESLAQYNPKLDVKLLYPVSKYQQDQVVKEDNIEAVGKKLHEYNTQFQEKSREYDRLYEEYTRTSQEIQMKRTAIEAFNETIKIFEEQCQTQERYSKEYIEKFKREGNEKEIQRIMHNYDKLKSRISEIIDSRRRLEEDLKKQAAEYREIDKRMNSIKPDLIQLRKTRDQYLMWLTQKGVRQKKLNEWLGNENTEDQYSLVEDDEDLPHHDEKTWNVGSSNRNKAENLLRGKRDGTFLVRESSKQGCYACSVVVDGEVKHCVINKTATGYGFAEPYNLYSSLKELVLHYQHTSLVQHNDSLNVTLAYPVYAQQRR

MAPKAP-K3(h) = MAPKAP-K3(h) (Homo sapiens, UniProt Q16644)
Sequence of MAPKAP-K3(h) (Q16644 whole entry): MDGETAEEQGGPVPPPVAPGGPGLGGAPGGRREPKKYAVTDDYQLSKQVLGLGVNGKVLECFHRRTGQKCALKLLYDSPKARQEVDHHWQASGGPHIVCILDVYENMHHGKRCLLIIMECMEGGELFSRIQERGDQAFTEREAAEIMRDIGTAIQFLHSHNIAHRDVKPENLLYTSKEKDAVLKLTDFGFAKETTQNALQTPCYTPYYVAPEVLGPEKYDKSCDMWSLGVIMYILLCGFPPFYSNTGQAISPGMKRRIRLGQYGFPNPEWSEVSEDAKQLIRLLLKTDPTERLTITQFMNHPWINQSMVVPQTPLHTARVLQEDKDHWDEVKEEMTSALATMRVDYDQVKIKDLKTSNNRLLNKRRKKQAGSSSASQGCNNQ

EGFR(T790M, L858R)(h) = EGFR(T790M, L858R)(h) (Homo sapiens, UniProt P00533, L858R/T790M)

Sequence of Fms(h) (P07333 20-972): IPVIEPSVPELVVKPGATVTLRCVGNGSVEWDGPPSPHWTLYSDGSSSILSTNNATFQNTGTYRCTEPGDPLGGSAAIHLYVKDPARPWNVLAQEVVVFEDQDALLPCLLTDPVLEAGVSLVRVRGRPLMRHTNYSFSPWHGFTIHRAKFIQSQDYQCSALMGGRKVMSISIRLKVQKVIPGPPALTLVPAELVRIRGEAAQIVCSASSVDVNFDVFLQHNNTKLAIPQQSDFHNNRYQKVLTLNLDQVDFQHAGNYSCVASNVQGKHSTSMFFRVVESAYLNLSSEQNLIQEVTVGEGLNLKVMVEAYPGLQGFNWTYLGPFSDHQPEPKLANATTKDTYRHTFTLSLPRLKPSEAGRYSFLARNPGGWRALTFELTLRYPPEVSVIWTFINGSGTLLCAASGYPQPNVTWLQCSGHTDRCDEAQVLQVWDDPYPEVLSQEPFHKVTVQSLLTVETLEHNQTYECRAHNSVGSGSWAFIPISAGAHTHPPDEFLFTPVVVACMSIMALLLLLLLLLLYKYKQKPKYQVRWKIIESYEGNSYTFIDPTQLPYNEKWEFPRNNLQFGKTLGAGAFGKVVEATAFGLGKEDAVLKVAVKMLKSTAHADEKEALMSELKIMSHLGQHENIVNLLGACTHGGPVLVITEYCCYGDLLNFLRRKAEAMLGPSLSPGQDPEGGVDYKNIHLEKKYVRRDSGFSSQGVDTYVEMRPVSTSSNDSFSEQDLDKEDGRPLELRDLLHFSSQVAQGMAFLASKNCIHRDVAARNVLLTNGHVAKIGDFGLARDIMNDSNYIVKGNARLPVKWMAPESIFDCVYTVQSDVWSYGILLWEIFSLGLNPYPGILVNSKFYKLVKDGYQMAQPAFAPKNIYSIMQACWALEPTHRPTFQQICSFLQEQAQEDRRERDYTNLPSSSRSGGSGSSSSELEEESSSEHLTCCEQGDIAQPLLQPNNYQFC

Structure (SMILES): CC(C)CCC(=O)[C@]1(O)C(O)=C(C(=O)C(C)C)C(=O)[C@H]1CCC(C)C [TH2, tetrahydroiso-cohumulone]
- kinase inhibition (Fms(h); 1 μg/ml): 116% of control
- kinase inhibition (Fms(h); 5 μg/ml): 103% of control
- kinase inhibition (Fms(h); 25 μg/ml): 121% of control
- kinase inhibition (Fms(h); 50 μg/ml): 117% of control
- kinase inhibition (Fms(h); 100 μg/ml): 98% of control
- kinase inhibition (NEK11(h); 1 μg/ml): 97% of control
- kinase inhibition (NEK11(h); 5 μg/ml): 106% of control
- kinase inhibition (NEK11(h); 25 μg/ml): 96% of control
- kinase inhibition (NEK11(h); 50 μg/ml): 75% of control
- kinase inhibition (NEK11(h); 100 μg/ml): 51% of control
- kinase inhibition (SAPK2b(h); 1 μg/ml): 117% of control
- kinase inhibition (SAPK2b(h); 5 μg/ml): 110% of control
- kinase inhibition (SAPK2b(h); 25 μg/ml): 108% of control
- kinase inhibition (SAPK2b(h); 50 μg/ml): 108% of control
- kinase inhibition (SAPK2b(h); 100 μg/ml): 111% of control
- kinase inhibition (Rsk1(h); 1 μg/ml): 97% of control
- kinase inhibition (Rsk1(h); 5 μg/ml): 95% of control
- kinase inhibition (Rsk1(h); 25 μg/ml): 65% of control
- kinase inhibition (Rsk1(h); 50 μg/ml): 53% of control
- kinase inhibition (Rsk1(h); 100 μg/ml): 32% of control
- kinase inhibition (SAPK4(h); 1 μg/ml): 114% of control
- kinase inhibition (SAPK4(h); 5 μg/ml): 118% of control
- kinase inhibition (SAPK4(h); 25 μg/ml): 116% of control
- kinase inhibition (SAPK4(h); 50 μg/ml): 121% of control
- kinase inhibition (SAPK4(h); 100 μg/ml): 109% of control
- kinase inhibition (FGFR4(h); 1 μg/ml): 89% of control
- kinase inhibition (FGFR4(h); 5 μg/ml): 81% of control
- kinase inhibition (FGFR4(h); 25 μg/ml): 55% of control
- kinase inhibition (FGFR4(h); 50 μg/ml): 64% of control
- kinase inhibition (FGFR4(h); 100 μg/ml): 55% of control
- kinase inhibition (DAPK1(h); 1 μg/ml): 63% of control
- kinase inhibition (DAPK1(h); 5 μg/ml): 40% of control
- kinase inhibition (DAPK1(h); 25 μg/ml): 32% of control
- kinase inhibition (DAPK1(h); 50 μg/ml): 25% of control
- kinase inhibition (DAPK1(h); 100 μg/ml): 19% of control
- kinase inhibition (PI 3-Kinaseδ(h); 1 μg/ml): 97% of control
- kinase inhibition (PI 3-Kinaseδ(h); 5 μg/ml): 89% of control
- kinase inhibition (PI 3-Kinaseδ(h); 25 μg/ml): 62% of control
- kinase inhibition (PI 3-Kinaseδ(h); 50 μg/ml): 18% of control
- kinase inhibition (PI 3-Kinaseδ(h); 100 μg/ml): 52% of control
- kinase inhibition (MAPKAP-K3(h); 1 μg/ml): 101% of control
- kinase inhibition (MAPKAP-K3(h); 5 μg/ml): 100% of control
- kinase inhibition (MAPKAP-K3(h); 25 μg/ml): 109% of control
- kinase inhibition (MAPKAP-K3(h); 50 μg/ml): 104% of control
- kinase inhibition (MAPKAP-K3(h); 100 μg/ml): 101% of control
- kinase inhibition (EGFR(T790M, L858R)(h); 1 μg/ml): 104% of control
- kinase inhibition (EGFR(T790M, L858R)(h); 5 μg/ml): 109% of control
- kinase inhibition (EGFR(T790M, L858R)(h); 25 μg/ml): 95% of control
- kinase inhibition (EGFR(T790M, L858R)(h); 50 μg/ml): 94% of control
- kinase inhibition (EGFR(T790M, L858R)(h); 100 μg/ml): 82% of control
